Assay results from patent US11826351B2, “Compounds useful as kinase inhibitors” (Loxo Oncology, Inc., priority 2015, dated 2023).
Like-named read-outs stand apart in the source and are kept apart here.

Columns and labels:
[1] = molecular target: T1, Recombinant BTK^WT kinase (Homo sapiens, UniProt Q06187); assay: BTK WT binding affinity (LanthaScreen TR-FRET); settings: Kinase Tracer 236, 5 h incubation
T1 construct: purchased Invitrogen
Experimental: BTK^WT binding affinity of each compound tested was determined using a time-resolved fluorescence resonance energy transfer (TR-FRET) methodology. 2.5 nM Recombinant BTK^WT kinase, varying concentrations of inhibitor, 2 nM LanthaScreen™ Eu anti-His Antibody and 15 nM Kinase Tracer 236 was incubated in 1× LanthaScreen™ Kinase Buffer A for 5 h. Recombinant BTK kinase and all LanthaScreen™ components were purchased from Invitrogen. Measurements were performed in a reaction volume of 30 μL using half-area 96-well assay plates. The TR-FRET signal was read on a plate reader with an excitation wavelength of 340 nm and detection wavelengths of 615 and 665 nm. Binding affinity was determined for each compound by measuring TR-FRET signal at various concentrations of compound and plotting the relative fluorescence units against the inhibitor concentration to estimate the IC50 from log[Inhibitor] vs response using the Variable Slope model in Graphpad prism from Graphpad software (San Diego, Calif.).

[2] = molecular target: T2, Recombinant BTK^C481S kinase (Homo sapiens, UniProt Q06187, C481S); assay: BTK C481S binding affinity (LanthaScreen TR-FRET); settings: Kinase Tracer 236, 5 h incubation
T2 construct: purchased SignalChem
T2 sequence (Q06187 whole entry C481S): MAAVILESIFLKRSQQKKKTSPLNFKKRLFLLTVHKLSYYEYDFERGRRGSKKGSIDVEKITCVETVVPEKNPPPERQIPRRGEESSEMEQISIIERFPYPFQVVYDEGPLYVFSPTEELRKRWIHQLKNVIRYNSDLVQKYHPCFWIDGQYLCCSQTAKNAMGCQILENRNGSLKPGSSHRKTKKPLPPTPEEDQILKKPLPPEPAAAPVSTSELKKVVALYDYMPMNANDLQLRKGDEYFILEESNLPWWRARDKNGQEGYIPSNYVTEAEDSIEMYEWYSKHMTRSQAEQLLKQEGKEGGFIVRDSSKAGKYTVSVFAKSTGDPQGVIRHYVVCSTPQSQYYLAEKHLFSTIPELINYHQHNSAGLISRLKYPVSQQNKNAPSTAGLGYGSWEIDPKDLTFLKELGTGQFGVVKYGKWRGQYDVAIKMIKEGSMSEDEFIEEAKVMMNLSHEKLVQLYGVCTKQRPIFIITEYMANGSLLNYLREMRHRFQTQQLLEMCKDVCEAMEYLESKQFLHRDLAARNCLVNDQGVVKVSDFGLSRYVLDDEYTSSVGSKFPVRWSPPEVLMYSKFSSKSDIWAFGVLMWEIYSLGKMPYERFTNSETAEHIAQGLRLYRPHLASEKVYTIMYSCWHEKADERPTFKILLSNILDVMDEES
Experimental: BTK^C481S binding affinity of each compound tested was determined using a time-resolved fluorescence resonance energy transfer (TR-FRET) methodology. 5 nM Recombinant BTK^WT kinase, varying concentrations of inhibitor, 2 nM LanthaScreen™ Eu anti-His Antibody and 30 nM Kinase Tracer 236 was incubated in 1× LanthaScreen™ Kinase Buffer A for 5 h. Recombinant BTK^C481S kinase was purchased from SignalChem and all LanthaScreen™ components were purchased from Invitrogen. Measurements were performed in a reaction volume of 30 μL using half-area 96-well assay plates. The TR-FRET signal was read on a plate reader with an excitation wavelength of 340 nm and detection wavelengths of 615 and 665 nm. Binding affinity was determined for each compound by measuring TR-FRET signal at various concentrations of compound and plotting the relative fluorescence units against the inhibitor concentration to estimate the IC50 from log[Inhibitor] vs response using the Variable Slope model in Graphpad prism from Graphpad software (San Diego, Calif.).

Recombinant EGFR = molecular target: T3, Recombinant EGFR (Homo sapiens, UniProt P00533); assay: EGFR binding affinity (LanthaScreen TR-FRET); settings: Kinase Tracer 199, 5 h incubation
T3 construct: purchased Invitrogen
T3 sequence (P00533 25-1210): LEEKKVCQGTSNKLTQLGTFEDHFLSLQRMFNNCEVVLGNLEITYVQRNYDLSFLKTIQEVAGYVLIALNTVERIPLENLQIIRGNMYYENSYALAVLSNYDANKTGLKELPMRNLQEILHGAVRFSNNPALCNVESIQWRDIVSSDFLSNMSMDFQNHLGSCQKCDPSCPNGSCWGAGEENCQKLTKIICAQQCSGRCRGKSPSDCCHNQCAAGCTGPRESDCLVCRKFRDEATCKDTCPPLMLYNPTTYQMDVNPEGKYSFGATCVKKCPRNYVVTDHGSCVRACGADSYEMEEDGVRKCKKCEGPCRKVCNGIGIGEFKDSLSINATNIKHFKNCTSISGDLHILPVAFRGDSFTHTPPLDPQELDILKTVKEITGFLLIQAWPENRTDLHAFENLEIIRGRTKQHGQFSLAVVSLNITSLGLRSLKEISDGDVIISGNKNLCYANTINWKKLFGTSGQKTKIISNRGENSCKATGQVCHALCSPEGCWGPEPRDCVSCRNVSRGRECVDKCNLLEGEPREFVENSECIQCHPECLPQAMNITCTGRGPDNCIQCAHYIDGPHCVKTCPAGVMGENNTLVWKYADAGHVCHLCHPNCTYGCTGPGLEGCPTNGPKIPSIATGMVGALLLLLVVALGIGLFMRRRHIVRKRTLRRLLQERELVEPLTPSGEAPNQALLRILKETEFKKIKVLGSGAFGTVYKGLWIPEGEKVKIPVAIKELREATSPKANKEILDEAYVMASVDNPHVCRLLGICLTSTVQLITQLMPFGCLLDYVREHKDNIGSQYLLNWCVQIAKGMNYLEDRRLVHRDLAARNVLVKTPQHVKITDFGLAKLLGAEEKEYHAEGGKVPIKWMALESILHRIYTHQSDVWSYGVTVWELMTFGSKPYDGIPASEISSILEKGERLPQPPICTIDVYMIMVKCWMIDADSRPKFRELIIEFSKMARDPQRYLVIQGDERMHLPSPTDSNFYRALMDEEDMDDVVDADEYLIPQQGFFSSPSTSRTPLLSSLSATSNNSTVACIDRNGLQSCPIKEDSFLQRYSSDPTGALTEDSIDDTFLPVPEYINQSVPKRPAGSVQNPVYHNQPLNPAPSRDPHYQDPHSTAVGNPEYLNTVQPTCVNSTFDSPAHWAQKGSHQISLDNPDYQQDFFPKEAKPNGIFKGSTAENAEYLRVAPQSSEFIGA
Experimental: EGFR binding affinity was determined using a time-resolved fluorescence resonance energy transfer (TR-FRET) methodology. […] Recombinant EGFR and all LanthaScreen™ components were purchased from Invitrogen. Measurements were performed in a reaction volume of 30 μL using half-area 96-well assay plates. […] Binding affinity was determined for each compound by measuring TR-FRET signal at various concentrations of compound and plotting the relative fluorescence units against the inhibitor concentration to estimate the IC50 from log[Inhibitor] vs response using the Variable Slope model in Graphpad prism from Graphpad software (San Diego, Calif.).

[3] = system: OCI-Ly10 human DLBCL cells; assay: OCI-Ly10 anti-proliferative activity (Resazurin); format: cell-based; settings: OCI-Ly10 cells, 72 h compound treatment, Resazurin, read-out: Proliferation Assay OCI-Ly10-20% FBS
Experimental: Compounds were assayed for effects on the growth of OCI-Ly10 human DLBCL cells that are dependent on NFκB signalling. […] Cells were then plated at 7.5×10^3 cells per well in 96-well plates in varying concentrations of compound and incubated for 72 h at 37° C. An additional plate of cells to be used as the Day 0 read was seeded without compound addition, Resazurin was added to each well, incubated for 5 h and the fluorescence measured at 590 nm. After 72 h of compound treatment, Resazurin was added to each well of the compound treated plates, incubated for 5 h and the fluorescence measured at 590 nm. The IC50 was then calculated by subtracting the average Day 0 value from each well value from the treated plates, each treatment was then calculated as a percentage of the DMSO control and the percentages plotted against the inhibitor concentration to estimate the IC50 from log[Inhibitor] vs response using the Variable Slope model in Graphpad prism from Graphpad software (San Diego, Calif.).

T1 sequence (Q06187 whole entry): as the sequence (Q06187 whole entry C481S) above, with S481C counted along it

Row | SMILES | IC50 [1] [µM] | IC50 [2] [µM] | IC50 (Recombinant EGFR) [µM] | IC50 ([3]; Homo sapiens, OCI-Ly10, 72 h) [µM] | IC50 [3] [µM]
1 | COc1ccccc1C(=O)NCc1ccc(-c2nn(C3CCOCC3(C)C)c(N)c2C(N)=O)cc1 (centres unmarked) [Example 89, 5-amino-1-(3,3-dimethyltetrahydropyran-4-yl)-3-[4-[[(2-methoxybenzoyl)amino]methyl]phenyl]pyrazole-4-carboxamide] | 0.01 to 0.1 | 0.01 to 0.1 | 1 to 10 | 1 to 10 | –
2 | COc1ccccc1C(=O)NCc1ccc(-c2nn(C3CCOCC3F)c(N)c2C(N)=O)cc1 (single isomer, unassigned) [Example 95, 5-amino-1-[3-fluorotetrahydropyran-4-yl]-3-[4-[[(2-methoxybenzoyl)amino]methyl]phenyl]pyrazole-4-carboxamide] | 0.01 to 0.1 | < 0.01 | 1 to 10 | – | 0.1 to 1
3 | COc1ccccc1C(=O)NCc1ccc(-c2nn(-c3ccccc3C)c(N)c2C(N)=O)cc1 [Example 47, 5-amino-3-[4-[[(2-methoxybenzoyl)amino]methyl]phenyl]-1-(o-tolyl)pyrazole-4-carboxamide] | 0.01 to 0.1 | < 0.01 | 1 to 10 | 0.1 to 1 | –
4 | COc1ccccc1C(=O)NCc1ccc(-c2nn(C3CCC(C(=O)O)CC3)c(N)c2C(N)=O)cc1 (mixture of isomers) [Example 74, 4-[5-amino-4-carbamoyl-3-[4-[[(2-methoxybenzoyl)amino]methyl]phenyl]pyrazol-1-yl]cyclohexanecarboxylic acid] | < 0.01 | < 0.01 | 0.1 to 1 | 1 to 10 | –
5 | COc1ccccc1C(=O)NCc1ccc(-c2nn([C@@H]3CCC[C@H]3O)c(N)c2C(N)=O)cc1 (relative stereo) [Example 2, 5-Amino-1-[(1R*,2R*)-2-hydroxycyclopentyl]-3-[4-[[(2-methoxybenzoyl)amino]methyl]phenyl]pyrazole-4-carboxamide] | < 0.01 | < 0.01 | – | 0.1 to 1 | –
6 | CNC(=O)c1c(-c2ccc(CNC(=O)c3ccccc3OC)cc2)nn(C2CCCC2)c1N [Example 69, 5-amino-1-cyclopentyl-3-[4-[[(2-methoxybenzoyl)amino]methyl]phenyl]-N-methyl-pyrazole-4-carboxamide] | > 10 | – | – | – | –
7 | COc1ccc(F)cc1C(=O)NCc1c(F)cc(-c2nn(C3CCOCC3)c(N)c2C(N)=O)cc1F [Example 133, 5-amino-3-[3,5-difluoro-4-[[(5-fluoro-2-methoxy-benzoyl)amino]methyl]phenyl]-1-tetrahydropyran-4-yl-pyrazole-4-carboxamide] | 0.1 to 1 | 0.01 to 0.1 | > 10 | – | –
8 | COc1ccccc1C(=O)NCc1ccc(-c2nn(C3CCCC3)c(Nc3ccccc3)c2C(N)=O)cc1 [Example 56, 5-anilino-1-cyclopentyl-3-[4-[[(2-methoxybenzoyl)amino]methyl]phenyl]pyrazole-4-carboxamide] | 0.1 to 1 | 0.1 to 1 | – | 1 to 10 | –
9 | COc1ccc(F)cc1C(=O)NCc1ccc(-c2nn(C(C3CC3)C(F)(F)F)c(N)c2C(N)=O)cc1 (centres unmarked) [Example 188, 5-amino-1-(1-cyclopropyl-2,2,2-trifluoro-ethyl)-3-[4-[[(5-fluoro-2-methoxy-benzoyl)amino]methyl]phenyl]pyrazole-4-carboxamide] | < 0.01 | < 0.01 | 1 to 10 | – | –
10 | COc1ccccc1C(=O)NCc1ccc(-c2nn(C[C@H]3CCCNC3)c(N)c2C(N)=O)cc1 [Example 42, 5-amino-3-[4-[[(2-methoxybenzoyl)amino]methyl]phenyl]-1-[[(3S)-3-piperidyl]methyl]pyrazole-4-carboxamide] | > 10 | – | > 10 | – | –
11 | COc1ccccc1C(=O)NCc1c(F)cc(-c2nn(C3CCOCC3)c(N)c2C(N)=O)cc1F [Example 132, 5-amino-3-[3,5-difluoro-4-[[(2-methoxybenzoyl)amino]methyl]phenyl]-1-tetrahydropyran-4-yl-pyrazole-4-carboxamide] | 0.1 to 1 | 0.01 to 0.1 | > 10 | – | –
12 | COc1ccccc1C(=O)NCc1ccc(-c2nn(-c3nc(C)cs3)c(N)c2C(N)=O)cc1 [Example 67, 5-amino-3-[4-[[(2-methoxybenzoyl)amino]methyl]phenyl]-1-(4-methylthiazol-2-yl)pyrazole-4-carboxamide] | 0.1 to 1 | – | – | – | –
13 | COc1ccccc1C(=O)NC(CO)c1ccc(-c2nn(C3CCCC3)c(N)c2C(N)=O)cc1C (centres unmarked) [Example 185, 5-amino-1-cyclopentyl-3-[4-[2-hydroxy-1-[(2-methoxybenzoyl)amino]ethyl]-3-methyl-phenyl]pyrazole-4-carboxamide] | 1 to 10 | 1 to 10 | 1 to 10 | – | –

Next, values leading:

Row | IC50 [1] [µM] | IC50 [2] [µM] | IC50 (Recombinant EGFR) [µM] | IC50 ([3]; Homo sapiens, OCI-Ly10, 72 h) [µM] | IC50 [3] [µM] | SMILES
14 | < 0.01 | < 0.01 | 0.1 to 1 | 0.01 to 0.1 | – | COc1ccccc1C(=O)NCc1ccc(-c2nn(-c3ccccc3F)c(N)c2C(N)=O)cc1 [Example 39, 5-amino-1-(2-fluorophenyl)-3-[4-[[(2-methoxybenzoyl)amino]methyl]phenyl]pyrazole-4-carboxamide]
15 | < 0.01 | < 0.01 | 0.1 to 1 | 0.01 to 0.1 | – | COc1ccccc1C(=O)NCc1ccc(-c2nn([C@H]3CC[C@H](F)C3)c(N)c2C(N)=O)cc1 (relative stereo) [Example 41, 5-amino-1-[(1S*,3S*)-3-fluorocyclopentyl]-3-[4-[[(2-methoxybenzoyl)amino]methyl]phenyl]pyrazole-4-carboxamide]
16 | < 0.01 | < 0.01 | 1 to 10 | 0.01 to 0.1 | – | COc1ccc(F)cc1C(=O)NCc1ccc(-c2nn(C3CCCOC3)c(N)c2C(N)=O)cc1F (centres unmarked) [Example 127, 5-amino-3-[3-fluoro-4-[[(5-fluoro-2-methoxy-benzoyl)amino]methyl]phenyl]-1-tetrahydropyran-3-yl-pyrazole-4-carboxamide]
17 | < 0.01 | < 0.01 | 1 to 10 | 0.01 to 0.1 | – | CCn1nc(-c2ccc(CNC(=O)c3cc(F)ccc3OC)cc2)c(C(N)=O)c1N [Example 195, 5-amino-1-ethyl-3-[4-[[(5-fluoro-2-methoxy-benzoyl)amino]methyl]phenyl]pyrazole-4-carboxamide]
18 | < 0.01 | < 0.01 | 0.1 to 1 | 0.01 to 0.1 | – | COc1ccccc1C(=O)NCc1ccc(-c2nn(-c3ccc(CO)cc3)c(N)c2C(N)=O)cc1 [Example 49, 5-amino-1-[4-(hydroxymethyl)phenyl]-3-[4-[[(2-methoxybenzoyl)amino]methyl]phenyl]pyrazole-4-carboxamide]
19 | < 0.01 | – | 0.1 to 1 | – | 0.01 to 0.1 | COc1ccccc1C(=O)NCc1ccc(-c2nn(C3CCC(C)(O)CC3)c(N)c2C(N)=O)cc1 (single isomer, unassigned) [Example 27, 5-Amino-1-(4-hydroxy-4-methyl-cyclohexyl)-3-[4-[[(2-methoxybenzoyl)amino]methyl]phenyl]pyrazole-4-carboxamide]
20 | < 0.01 | < 0.01 | 0.1 to 1 | 0.01 to 0.1 | – | COc1ccccc1C(=O)NCc1ccc(-c2nn(C(C)C3CC3)c(N)c2C(N)=O)cc1 (centres unmarked) [Example 131, 5-amino-1-(1-cyclopropylethyl)-3-[4-[[(2-methoxybenzoyl)amino]methyl]phenyl]pyrazole-4-carboxamide]
